Values of other authors as cited in US10314873B2, “Method of treatment of diseases using hoodia extracts” (HADASIT MEDICAL RESEARCH SERVICES & DEVELOPMENT LTD., priority 2008, dated 2019).

Tests used:
hypothalamic neurons = settings: icv injection of purified P57
Liver = settings: P57 studies

## C/C=C(\C)C(=O)O[C@@H]1C[C@H]2[C@@H](CC=C3C[C@@H](O[C@H]4C[C@H](OC)[C@H](O[C@H]5C[C@H](OC)[C@H](O[C@@H]6O[C@H](C)[C@@H](O)[C@H](OC)[C@H]6O)[C@@H](C)O5)[C@@H](C)O4)CC[C@@]32C)[C@@]2(O)CC[C@H](C(C)=O)[C@@]12C [P57, (3β,12β,14β)-3-[(O-6-Deoxy-3-O-methyl-β-D-glucopyranosyl-(1→4)-O-2,6-dideoxy-3-O-methyl-β-D-ribohexopyranosyl-(1→4)-2,6-dideoxy-3-O-methyl-β-D-ribo-hexopyranosyl)oxy]-14-hydroxy-12-[[(2E)-2-methyl-1-oxo-2-butenyl]oxy]pregn-5-en-20-one]
Hypothalamic neurons
  increase of ATP content in hypothalamic neurons: 50-150%
Liver
  reduction of liver ATP content: about 60%
